The values below come from US9062070B2, “Inhibitors of the renal outer medullary potassium channel” (Merck Sharp & Dohme Corp., priority 2011, dated 2015).

The IC50 is the concentration at which inhibition is half-maximal. Read a low IC50 as greater potency.

Test [1] has as its target Kir1.1 (ROMK1) (Homo sapiens (Human), UniProt P48048). Description: Electrophysiology Assay (whole cell voltage clamp, IonWorks Quattro). The note with it: Chinese hamster ovary cells stably expressing Kir1.1; block during voltage step to 0 mV. Type of test: cell-based. As to the method:
Block of Kir1.1 (ROMK1) currents was examined by whole cell voltage clamp (Hamill et. al. […] Prior to an experiment, Kir1.1 expression was induced by overnight incubation with 1 mM sodium butyrate. […] After centrifugation, the cell pellet was resuspended in approximately 4.0 mL of bath solution and placed in the IonWorks instrument. The intracellular solution consisted of (in mM): 80 K gluconate, 40 KCl, 20 KF, 3.2 MgCl2, 3 EGTA, 5 Hepes, pH 7.4. […] Amphotericin B (Sigma A-4888) was prepared as a 40 mg/mL solution in DMSO. Voltage protocols and current recordings were performed using the IonWorks HT software/hardware system. […] No correction for liquid junction potentials was used. The test pulse, consisting of a 100 ms step to 0 mV from a holding potential of −70 mV, followed by a 100 ms voltage ramp from −70 mV to +70 mV, was applied before and after a 6 min compound incubation period. Test compounds were prepared by diluting DMSO stock solutions into the bath solution at 3× the final concentration and placed in the instrument in 96-well polypropylene plates. Current amplitudes were measured using the IonWorks software. To assess compound potency, the fractional block during the voltage step to 0 mV was calculated in Microsoft Excel (Microsoft, Redmond, Calif.), and dose-response curves were fitted with Igor Pro 4.0 (WaveMetrics, Lake Oswego, Oreg.).
(The patch-clamp technique gives a direct electrical read-out from membranes.)

Test [2] concerns the target hROMK (hKir1.1) (Homo sapiens (Human), UniProt P48048). Kind of test: Thallium Flux Assay (ROMK channel functional thallium flux, FLIPR-Tetra). Type of test: cell-based. As to conditions: HEK293 cells stably expressing hROMK (hKir1.1). On the procedure:
HEK293 cells stably expressing hROMK (hKir1.1) were grown at 37° C. in a 10% CO2 humidified incubator in complete growth media: Dulbecco's Modified Eagle Medium supplemented with non-essential amino acids, Penicillin/Streptomycin/Glutamine, G418 and FBS. At >80% confluency, aspirate the media from the flask and rinse with 10 mL Calcium/Magnesium-free PBS. Add 5 mL of 1× trypsin (prepared in Ca/Mg Free PBS) to T-225 flask and return flask to 37° C./CO2 incubator for 2-3 minutes. To dislodge the cell, gently bang the side of the flask with your hand. Triturate the cells completely and then transfer the cells to 25 mL complete media. Centrifuge at 1,500 rpm for 6 min followed by resuspension in complete growth media and determine cell concentration. For typical re-seeding, 4E6 cells/T-225 flask will attain>80% confluency in 4 days. Under ideal growth conditions and appropriate tissue culture practices, this cell line is stable for 40-45 passages.
• FluxOR™ Reagent (Component A) • FluxOR™ Assay Buffer (Component B)—10× Concentrate • PowerLoad™ Concentrate (Component C)—100× Concentrate • Probenecid (Component D)—Lyophilized sample is kept at −20° C. Water soluble, 100× after solubilization in 1 mL water. Store at 4° C. • FluxOR™ Chloride-free Buffer (Component E)—5× Concentrate • Potassium sulfate (K2SO4) Concentrate (Component F)—125 mM in water. Store at 4° C. • Thallium sulfate (Tl2SO4) Concentrate (Component G)—50 mM in water. Store at 4° C. • DMSO (dimethyl sulfoxide, Component H)—1 mL (100%) Reagent Preparation: FluxOR Working Solutions • 1000× FluxOR™ Reagent: Reconstitute a vial of component A in 100 μl DMSO; Mix well; Store 10 μl aliquots at −20° C. • 1× FluxOR™ Assay Buffer: Dilute Component B 10-fold with water; Adjust pH to 7.4 with Hepes/NaOH; Filter and store at 4° C. • Probenecid/Assay Buffer: 100 mL of 1× FluxOR™ Assay Buffer; 1 mL of reconstituted component D; Store at 4° C. • Loading Buffer (per microplate): 10 μl 1000× FluxOR™ Reagent; 100 μl component C; 10 mL Probenecid/Assay Buffer • Compound Buffer (per microplate): 20 mL Probenecid/Assay Buffer; 0.3 mM ouabain (10 mM ouabain in water can be stored in amber bottle/aluminum foil at room temperature); Test compound • 1× FluxOR™ Chloride-Free Buffer: Prepare 1× working solution in water. Can be stored at room temperature • Stimulant Buffer (prepared at 5× final concentration in 1× FluxOR™ Chloride-Free Buffer): 7.5 mM Thallium sulfate and 0.75 mM Potassium sulfate (to give a final assay concentration of 3 mM Thallium/0.3 mM Potassium). Store at 4° C. when not in use. If kept sterile, this solution is good for months. Assay Protocol—
The ROMK channel functional thallium flux assay is performed in 384 wells, using the FLIPR-Tetra instrument. HEK-hKir1.1 cells are seeded in Poly-D-Lysine microplates and kept in a 37° C.-10% CO2 incubator overnight. On the day of the experiment, the growth media is replaced with the FluxOR™ reagent loading buffer and incubated, protected from light, at ambient temperature (23-25° C.) for 90 min. The loading buffer is replaced with assay buffer±test compound followed by 30 min incubation at ambient temperature, where the Thallium/Potassium stimulant is added to the microplate.
• 1. Seed HEK-hKir1.1 cells (50 μl at 20,000 cells/well) in 384-well PDL coated Microplates • 2. Allow cells to adhere overnight in humidified 37° C./10% CO2 incubator • 3. Completely remove cell growth media from microplate and replace with 25 μl loading buffer • 4. Incubate Microplate at room temperature, protected form light, for 90 min • 5. Remove loading buffer and replace with 25 μl 1× Assay Buffer±test compound. • 6. Incubate microplate at room temperature, protected form light, for 30 min • 7. At FLIPR-Tetra 384: Add stimulant (Thallium/Potassium) solution to microplate and monitor fluorescence. Excitation=400 nm, Emission=460 & 580 nm. Collect data for ˜10 min. Data Calculation—

Kir1.1 (ROMK1), sequence (P48048 whole entry): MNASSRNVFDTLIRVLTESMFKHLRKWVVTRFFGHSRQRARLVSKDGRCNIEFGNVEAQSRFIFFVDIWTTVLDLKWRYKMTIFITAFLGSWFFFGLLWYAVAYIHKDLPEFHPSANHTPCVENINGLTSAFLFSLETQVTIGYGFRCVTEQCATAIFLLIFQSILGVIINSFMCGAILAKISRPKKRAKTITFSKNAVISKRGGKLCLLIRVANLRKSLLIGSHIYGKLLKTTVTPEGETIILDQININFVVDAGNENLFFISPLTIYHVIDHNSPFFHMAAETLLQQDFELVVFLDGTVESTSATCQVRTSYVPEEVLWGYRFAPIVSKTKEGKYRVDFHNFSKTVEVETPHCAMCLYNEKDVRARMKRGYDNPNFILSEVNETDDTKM
hROMK (hKir1.1), sequence (P48048 whole entry): as above

For `Cc1c([C@@H]2CN3CCN(C(=O)C4CCc5nc(-n6cnnn6)ccc54)C[C@H]3CO2)csc1C#N` (stereo partly shown) [Example 15], the half-inhibitory concentration (IC50) in test [1] is 60 nM; in test [2], 540 nM.
On the same counts, the results for `N#Cc1c(F)ccc([C@@H]2CN3CCN(C(=O)C4CCc5nc(-n6cnnn6)ccc54)C[C@H]3CO2)c1F` (stereo partly shown) [Example 18] are 110 nM and 400 nM.
The matching figures for `N#Cc1c(F)ccc([C@H]2CN3CCN(C(=O)C4CCc5nc(-n6cnnn6)ccc54)C[C@H]3CO2)c1F` (stereo partly shown) [Example 19]: 90 nM and 420 nM.
The matching figures for `N#Cc1c(F)ccc([C@@H]2CN3CCN(C(=O)C4CCc5nc(-n6cnnn6)ccc54)C[C@@H]3CO2)c1F` (stereo partly shown) [Example 20]: 80 nM and 230 nM.
As for `N#Cc1c(F)ccc([C@H]2CN3CCN(C(=O)C4CCc5nc(-n6cnnn6)ccc54)C[C@@H]3CO2)c1F` (stereo partly shown) [Example 21], the figures for the IC50 in test [1] and in test [2] were 80 nM and 240 nM, respectively.
On the same counts, the results for `N#Cc1c(F)ccc([C@@H]2CN3CCN(C(=O)C4CCc5cc(-n6cnnn6)ncc54)C[C@H]3CO2)c1F` (stereo partly shown) [Example 22] are 40 nM and 160 nM.
The matching figures for `N#Cc1c(F)ccc([C@H]2CN3CCN(C(=O)C4CCc5cc(-n6cnnn6)ncc54)C[C@@H]3CO2)c1F` (stereo partly shown) [Example 23]: 150 nM and 540 nM.
The matching figures for `N#Cc1c(F)ccc([C@@H]2CN3CCN(C(=O)C4CCc5cc(-n6cnnn6)ncc54)C[C@@H]3CO2)c1F` (stereo partly shown) [Example 24]: 200 nM and 110 nM.
For `N#Cc1c(F)ccc([C@H]2CN3CCN(C(=O)C4CCc5cc(-n6cnnn6)ncc54)C[C@H]3CO2)c1F` (stereo partly shown) [Example 25], the figures for the IC50 in test [1] and in test [2] were 60 nM and 100 nM, respectively.
The matching figures for `N#Cc1c(F)ccc([C@@H]2CN3CCN(C(=O)C4CCc5nc(-n6cnnn6)ccc54)C[C@H]3CO2)c1Cl` (stereo partly shown) [Example 26]: 110 nM and 220 nM.
The matching figures for `N#Cc1c(F)ccc([C@@H]2CN3CCN(C(=O)C4CCc5nc(-n6cnnn6)ccc54)C[C@H]3CO2)c1Cl` (stereo partly shown) [Example 27]: 120 nM and 230 nM.
On the same counts, the results for `N#Cc1c(F)ccc([C@H]2CN3CCN(C(=O)C4CCc5nc(-n6cnnn6)ccc54)C[C@H]3CO2)c1Cl` (stereo partly shown) [Example 28] are 120 nM and 220 nM.
Turning to `N#Cc1c(F)ccc([C@H]2CN3CCN(C(=O)C4CCc5nc(-n6cnnn6)ccc54)C[C@H]3CO2)c1Cl` (stereo partly shown) [Example 29], the figures for the concentration for half-maximal inhibition (IC50) in test [1] and in test [2] were 140 nM and 450 nM, respectively.
On the same counts, the results for `N#Cc1c(F)ccc([C@H]2CN3CCN(C(=O)C4CCc5nc(-n6cnnn6)ccc54)C[C@@H]3CO2)c1Cl` (stereo partly shown) [Example 30] are 190 nM and 290 nM.
The matching figures for `N#Cc1c(F)ccc([C@@H]2CN3CCN(C(=O)C4CCc5cc(-n6cnnn6)ncc54)C[C@H]3CO2)c1Cl` (stereo partly shown) [Example 31]: 80 nM and 110 nM.
For `N#Cc1c(F)ccc([C@H]2CN3CCN(C(=O)C4CCc5cc(-n6cnnn6)ncc54)C[C@H]3CO2)c1Cl` (stereo partly shown) [Example 32], the IC50 turned out to be 70 nM in test [1] and 130 nM in test [2].
On the same counts, the results for `Cc1c([C@H]2CN3CCN(C(=O)C4CCc5nc(-n6cnnn6)ccc54)C[C@@H]3CO2)ccc(F)c1C#N` (stereo partly shown) [Example 34] are 160 nM and 120 nM.
The matching figures for `Cc1c([C@H]2CN3CCN(C(=O)C4CCc5cc(-n6cnnn6)ncc54)C[C@H]3CO2)ccc(F)c1C#N` (stereo partly shown) [Example 36]: 140 nM and 660 nM.
The matching figures for `Cc1c([C@@H]2CN3CCN(C(=O)C4CCc5cc(-n6cnnn6)cnc54)C[C@H]3CO2)ccc(F)c1C#N` (stereo partly shown) [Example 37]: 240 nM and 810 nM.
As to `Cc1c([C@@H]2CN3CCN(C(=O)C4CCc5cc(-n6cnnn6)cnc54)C[C@H]3CO2)ccc(F)c1C#N` (stereo partly shown) [Example 38], the IC50 was 280 nM in test [1] and 900 nM in test [2].
As to `Cc1c([C@H]2CN3CCN(C(=O)C4CCc5cc(-n6cnnn6)cnc54)C[C@@H]3CO2)ccc(F)c1C#N` (stereo partly shown) [Example 39], the IC50 in test [1] was found to be 390 nM; in test [2] it was 600 nM.
The matching figures for `Cc1c([C@H]2CN3CCN(C(=O)C4CCc5cc(-n6cnnn6)ncc54)C[C@@H]3CO2)ccc(F)c1C#N` (stereo partly shown) [Example 40]: 120 nM and 270 nM.
The matching figures for `Cc1c([C@H]2CN3CCN(C(=O)C4CCc5cc(-n6cnnn6)ncc54)C[C@@H]3CO2)ccc(F)c1C#N` (stereo partly shown) [Example 41]: 110 nM and 720 nM.
For `Cc1c([C@@H]2CN3CCN(C(=O)C4CCc5cc(-n6cnnn6)ncc54)C[C@@H]3CO2)ccc(F)c1C#N` (stereo partly shown) [Example 42], the IC50 is 130 nM in test [1] and 350 nM in test [2].
Regarding `Cc1c([C@@H]2CN3CCN(C(=O)C4CCc5cc(-n6cnnn6)ncc54)C[C@@H]3CO2)ccc(F)c1C#N` (stereo partly shown) [Example 43], the IC50 was found to be 130 nM in test [1] and 850 nM in test [2].
The matching figures for `Cc1c([C@@H]2CN3CCN(C(=O)C4CCc5cc(-n6cnnn6)ncc54)C[C@H]3CO2)ccc(F)c1C#N` (stereo partly shown) [Example 44]: 170 nM and 170 nM.
As to `O=C1OCCc2cc([C@@H]3CN4CCN(C(=O)C5CCc6cc(-n7cnnn7)ncc65)C[C@H]4CO3)ccc21` (stereo partly shown) [Example 45], the IC50 in test [1] amounted to 220 nM; in test [2], 600 nM.
On the same counts, the results for `COc1cc([C@H]2CN3CCN(C(=O)C4CCc5nc(-n6cnnn6)ccc54)C[C@H]3CO2)ccc1C#N` (stereo partly shown) [Example 51] are 190 nM and 580 nM.
On the same counts, the results for `COc1c([C@@H]2CN3CCN(C(=O)C4CCc5cc(-n6cnnn6)ncc54)C[C@H]3CO2)ccc(F)c1C#N` (stereo partly shown) [Example 52] are 220 nM and 420 nM.
